Data: patent publication US10889553B2, “Asymmetric triazole benzamide derivatives and the compositions and methods of treatment regarding the same” (NysnoBio Ireland DAC, priority 2017, dated 2021)
“And” between values parts separate entries of the source, which are not always exact repeats. Equal values may be shown once.

Biological target: T1, Parkin ligase (Homo sapiens, UniProt O60260)
T1 sequence (O60260 1-465): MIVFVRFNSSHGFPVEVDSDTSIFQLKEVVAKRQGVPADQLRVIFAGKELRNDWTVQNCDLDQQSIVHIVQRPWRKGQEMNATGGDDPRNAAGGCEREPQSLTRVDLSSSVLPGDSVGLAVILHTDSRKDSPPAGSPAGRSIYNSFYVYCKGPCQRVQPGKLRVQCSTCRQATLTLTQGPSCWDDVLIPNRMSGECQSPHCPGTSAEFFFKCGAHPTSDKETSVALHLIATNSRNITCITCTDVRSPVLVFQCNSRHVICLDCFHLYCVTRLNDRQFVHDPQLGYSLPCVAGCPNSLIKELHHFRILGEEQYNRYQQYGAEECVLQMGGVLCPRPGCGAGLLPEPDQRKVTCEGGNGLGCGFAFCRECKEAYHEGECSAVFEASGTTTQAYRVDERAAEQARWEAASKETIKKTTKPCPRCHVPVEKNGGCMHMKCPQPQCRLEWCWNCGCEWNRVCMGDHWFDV
Assay: Activity-Based Probe Assay using Ubiquitin vinyl sulfone probe (TR-FRET)
Assay type: biochemical
Settings: heat activated Parkin, HA-Ub-VS probe, activation EC50; read-out: Probe Assay EC50 (μM) [Example 2]
Description: An Ubiquitin vinyl sulfone probe can be used that irreversibly binds to the active site cysteine of Parkin ligase. Covalent attachment of the probe to the Parkin can be monitored by TR-FRET. Candidate activator compounds can be identified by increasing the activity of Parkin ligase due to an increase in TR-FRET signal. Screening for activating compounds can be distinguished from the controls as follows: 100% activation signal=Heat activated Parkin+100 nM control activator in DMSO. 0% activation signal=Heat activated Parkin+DMSO only. Parkin activators can be identified by an increase of the 0% activation signal TR-FRET signal. Assay Conditions: Materials: • Assay Plate: White 384 well plate (Corning 3572) • Enzyme: Parkin-His tagged 203 μM (10.5 mg/ml) • Probe: Ubiquitin vinyl-sulfone (HA-Ub-VS Boston Biochem U-212) • DMSO: DMSO (Sigma cat #D4540-100ML) • Reaction Buffer: 50 mM HEPES (pH 8.5), 150 mM NaCl, 0.01% Tween 20, 0.1% BSA • Detection Buffer: 50 mM HEPES (pH 8.5), 150 mM NaCl, 0.01% Tween 20, 0.1% BSA, 800 mM KF • Detection Reagent A: 2.6 nM Anti-6HIS-Eu cryptate and 40 nM Anti-HA-XL665 in detection buffer • Eu cryptate: Anti-6HIS-Eu cryptate (CisBio 61HISKLA) • XL665: Anti-HA-XL665 (CisBio 610HAXLA) Enzyme Reaction (15 Min Pre Incubation Parkin with Activator Only) • Parkin: 40 nM • HA-Ub-VS Probe: 70 nM • Activator/DMSO: 2× Activator/2% DMSO Reaction time: 60 minutes Temperature: 22° C. Total volume: 10 μl reaction Detection Reaction Take […] of Enzyme Reaction above and add 10 μl detection Reagent A under the following conditions: • Reaction time: 60 minutes • Temperature: 22° C. • Total volume: 20 μl
Assay procedure (Using HP D-300 compound dispenser and Bravo for the operation):
1) Heat activate Parkin in reaction buffer (500 μl/1.5 ml tube: Eppendorf Thermomixer 5 minutes, 400 rpm at 58° C. and put on ice until needed).
2) Load assay plate wells with 4.8 μl 84.5 nM Parkin in reaction buffer by use of Bravo.
3) Deliver 0.2 μl 200× activator candidates in DMSO by use of HP D-300 compound dispenser. Highest 200× concentration=[…] and then twofold dilutions.
4) Spin 1000 rpm, 2 minutes, at room temp.
5) Incubate plate for 15 minutes at room temp.
6) Add 5 μl 140 nM HA-Ub-VS Probe in reaction buffer by use of Bravo.
7) Spin 1000 rpm, 2 minutes, at room temp.
8) Incubate plate for 60 minutes at room temp.
9) Add 10 μl 2.6 nM Anti-6HIS-Eu cryptate and 40 nM […] in detection buffer.
10) Spin 1000 rpm, 2 minutes, at room temp.
11) Incubate plate for 60 minutes at room temp.
12) Read plates on Perkin Elmer Envision instrument with the following parameters:
LANCE dual laser protocol loaded into the Envision® software
Top Mirror: LANCE/DELFIA Duel/Bias (Bar code 446)
Emission Filter: APC 665 EM (Bar code 205)
2nd Emission Filter: Europium 615 EM (Bar code 203)
Read 655 nm (channel 1) and 615 nm (channel 2) wavelengths on Envision®
Data Analysis: The Data can be read in CSV files. There are two tables in those CSV files, which are the values of 655 nm (channel 1) and 615 nm (channel 2) wavelengths respectively. The data is converted to an HTRF Ratio=(Channel 1/Channel 2)*10,000
The average of all the 0 μM controls (DMSO only)=BKGD (Background—0% activation). Subtract BKGD from each HTRF Ratio value=HTRF−BKGD. The average of all the […] 100 nM control activator in DMSO controls=Max (100% activation). The following equation is then used to calculate % Activation for each well/candidate as follows: % Activation=(HTRF−BKGD/Max)*100.
Graphpad Prism was used with Transform X values: X=Log(X) and nonlinear regression (dose-response-stimulation): Log(agonist) vs Response−variable slope (four parameters) with constrains set to Bottom=0 and Top=100.
The Activity-Based Probe Assay was performed with various compounds in Tables 1, 2, 3A and 3B.

Row | SMILES | EC50
1 | Cc1ccccc1C(=O)Nc1nc(NC(=O)c2ccccc2C)n(-c2ccc3c(c2)CCO3)n1 [Compound 1] | 52 µM and > 100 µM
2 | Cc1ccccc1C(=O)Nc1nc(NC(=O)[C@@H]2C[C@@H](F)CN2)nn1-c1ccccc1 [Compound 4] | 38 µM and 24 µM
3 | Cc1ccccc1C(=O)Nc1nc(NC(=O)C2CCCNC2)n(-c2ccccc2)n1 (stereo not drawn) [Compound 14] | > 100 µM
4 | Cc1ccccc1C(=O)Nc1nc(NC(=O)C2CCCN2)n(-c2ccccc2)n1 (stereo not drawn) [Compound 15] | > 100 µM
5 | Cc1ccccc1C(=O)Nc1nc(NC(=O)C2CCCNC2)nn1-c1ccccc1 (stereo not drawn) [Compound 19] | > 100 µM
6 | Cc1ccccc1C(=O)Nc1nc(NC(=O)c2cn(C)cn2)n(-c2ccccc2)n1 [Compound 22] | > 100 µM
7 | Cc1ccccc1C(=O)Nc1nc(NC(=O)C2CNC2)nn1-c1ccccc1 [Compound 43] | > 100 µM
8 | Cc1ccccc1C(=O)Nc1nc(NC(=O)C2CCN(CCC#N)CC2)nn1-c1ccccc1 [Compound 45] | > 100 µM
9 | Cc1ccccc1C(=O)Nc1nc(NC(=O)c2ccccc2C)n(-c2cnn(C)c2)n1 [Compound 47] | 16 µM
10 | C#Cc1ccc(C(=O)Nc2nc(NC(=O)c3cccc(N=[N+]=[N-])c3)nn2-c2ccccc2)cc1 [Compound 48] | 2 µM
11 | O=C(Nc1nc(NC(=O)C2CCCCN2)n(-c2ccccc2)n1)C1CCCCN1 (stereo not drawn) [Compound 49] | > 100 µM
12 | Cc1ccccc1C(=O)Nc1nc(-c2ccc(F)cn2)nn1-c1ccccc1 [Compound 50] | > 100 µM
13 | Cc1ccccc1C(=O)Nc1nc(NC(=O)C2CCCCN2)nn1-c1ccccc1 (stereo not drawn) [Compound 51] | 84 µM
14 | O=C(Nc1nc(Nc2cccc3ccccc23)n(-c2ccccc2)n1)c1ccccc1 [Compound 52] | 61 µM
15 | C#Cc1ccc(C(=O)Nc2nc(NC(=O)c3ccc(N=[N+]=[N-])cc3)nn2-c2ccccc2)cc1 [Compound 53] | > 100 µM
16 | Cc1ccccc1C(=O)Nc1nc(NC(=O)c2ccccc2C)n(-c2ccc(N3CCOCC3)cc2)n1 [Compound 54] | 10 µM
17 | O=C(Nc1nc(NC(=O)c2c(F)c(F)c(F)c(F)c2F)n(-c2ccccc2)n1)c1ccccc1 [Compound 55] | 12 µM
18 | O=C(Nc1nc(NC(=O)C2CCCNC2)n(-c2ccccc2)n1)C1CCCNC1 (stereo not drawn) [Compound 56] | > 100 µM
19 | Cc1ccccc1C(=O)Nc1nc(NC(=O)c2ccccc2C)n(-c2ccc(N3CCNCC3)cc2)n1 [Compound 57] | > 100 µM
20 | Cc1ccccc1C(=O)Nc1nc(NC(=O)c2cccc(N=[N+]=[N-])c2)nn1-c1ccccc1 [Compound 66] | 8 µM
21 | Cc1ccccc1C(=O)Nc1nc(NC(=O)c2ccccc2C)n(-c2ccc(N3CCN(C)CC3)cc2)n1 [Compound 68] | 24 µM
22 | Cc1ccccc1C(=O)Nc1nc(NC(=O)c2cccc(N=[N+]=[N-])c2)n(-c2ccccc2)n1 [Compound 69] | 4 µM
23 | Cc1ccccc1C(=O)Nc1nc(NC(=O)c2ccc(N=[N+]=[N-])cc2)n(-c2ccccc2)n1 [Compound 70] | 4 µM
24 | O=C(Nc1nc(NC(=O)c2cccnc2)n(-c2cccc(F)c2)n1)c1cccnc1 [Compound 72] | 2 µM
25 | Cc1ccccc1C(=O)Nc1nc(NC(=O)c2ccc(N=[N+]=N)cc2)n(-c2ccc(OC(F)(F)F)cc2)n1 [Compound 74] | 0.9 µM
26 | Cc1ccccc1C(=O)Nc1nc(NC(=O)c2ccc(N=[N+]=[N-])cc2)nn1-c1ccc(OC(F)(F)F)cc1 [Compound 76] | 34 µM

Row | SMILES | EC50
27 | Cc1ccccc1C(=O)Nc1nc(NC(=O)c2cccc(N=[N+]=[N-])c2)nn1-c1ccc(OC(F)(F)F)cc1 [Compound 77] | 6 µM
28 | O=C(Nc1nc(NC(=O)c2c(F)c(F)c(F)c(F)c2F)nn1-c1ccccc1)c1ccccc1 [Compound 78] | 0.2 µM and 0.4 µM and 0.5 µM
29 | Cc1ccccc1C(=O)Nc1nc(NC(=O)c2cccc(N=[N+]=[N-])c2)n(-c2ccc(OC(F)(F)F)cc2)n1 [Compound 79] | 1 µM
30 | Cc1ccccc1C(=O)Nc1nc(NC(=O)c2ccncc2)nn1-c1ccc(OC(F)(F)F)cc1 [Compound 80] | 3 µM
31 | O=C(Nc1nc(NC(=O)c2cccnc2)n(-c2ccc(Cl)cc2)n1)c1cccnc1 [Compound 81] | 3 µM
32 | O=C(Nc1nc(NC(=O)c2ccncc2)n(-c2ccc(Cl)cc2)n1)c1ccncc1 [Compound 82] | 2 µM
33 | O=S(=O)(Nc1nc(NS(=O)(=O)c2ccccc2)n(-c2ccccc2)n1)c1ccccc1 [Compound 83] | > 100 µM
34 | Cc1ccccc1C(=O)Nc1nc(NCc2ccccc2)nn1-c1ccccc1 [Compound 84] | 4 µM
35 | Cc1ccccc1C(=O)Nc1nc(NC(=O)c2ccncc2)nn1-c1ccc(C(F)(F)F)cc1 [Compound 85] | 3 µM
36 | Cc1ccccc1C(=O)Nc1nc(NC(=O)c2cccnc2)nn1-c1ccc(OC(F)(F)F)cc1 [Compound 86] | 6 µM
37 | Cc1ccccc1C(=O)Nc1nc(NC(=O)c2cccnc2)nn1-c1cccc(F)c1 [Compound 87] | 7 µM
38 | CCc1ccccc1C(=O)Nc1nc(NC(=O)c2ccccc2CC)n(-c2ccccc2)n1 [Compound 88] | 5 µM
39 | Cc1ccccc1C(=O)Nc1nc(NC(=O)c2ccncc2)nn1-c1cccc(F)c1 [Compound 89] | 2 µM
40 | O=C(Nc1ccccc1)c1nc(C(=O)Nc2ccccc2)n(-c2ccccc2)n1 [Compound 90] | > 100 µM
41 | Cc1ccccc1C(=O)Nc1nc(NCCc2ccccc2)nn1-c1ccccc1 [Compound 91] | 2 µM
42 | Cc1ccccc1C(=O)Nc1nc(NC(=O)c2ccncc2)nn1-c1ccc(Cl)cc1 [Compound 92] | 2 µM
43 | Cc1cncc(F)c1C(=O)Nc1nc(NC(=O)c2c(C)cncc2F)n(-c2ccccc2)n1 [Compound 93] | > 100 µM
44 | Cc1ccccc1C(=O)Nc1nc(NC(=O)c2cccnc2)nn1-c1ccc(C(F)(F)F)cc1 [Compound 94] | 4 µM
45 | Cc1ccccc1C(=O)Nc1nc(NC(=O)c2cccnc2)nn1-c1ccc(Cl)cc1 [Compound 95] | 4 µM
46 | O=C(Nc1nc(NC(=O)c2ccnc(O)c2)n(-c2ccccc2)n1)c1ccnc(O)c1 [Compound 96] | 11 µM and 8 µM
47 | Cc1ccccc1C(=O)Nc1nc(NCCc2ccccn2)nn1-c1ccccc1 [Compound 97] | 14 µM
48 | Cc1c(C(=O)Nc2nc(NC(=O)c3ccnc(F)c3C)n(-c3ccccc3)n2)ccnc1F [Compound 98] | 5 µM
49 | Cc1cnccc1C(=O)Nc1nc(NC(=O)c2ccncc2C)n(-c2ccccc2)n1 [Compound 99] | 13 µM
50 | Cc1cccc(C)c1C(=O)Nc1nc(NC(=O)c2c(C)cccc2C)n(-c2ccccc2)n1 [Compound 100] | 9 µM
51 | Cc1ccccc1C(=O)Nc1nc(NCc2ccccn2)nn1-c1ccccc1 [Compound 101] | 18 µM
